Test results taken from US6500802B1, “Peptidyl-2-amino-1-hydroxyalkanesulfonic acid cysteine protease inhibitors” (Cephalon, Inc., priority 1997, dated 2002).
≈ marks a conversion by molar mass, not a printed value. Where a name gives a salt, the structure may show the parent alone. Where a SMILES comes first, the peptide text is derived from it. [ ]: non-standard residue; d: D form. The star is where a group is joined. Gly(cPent) = N[CH](C(=O)O)C1CCCC1; Cbz = O=C(OCc1ccccc1)*; Abu = CC[CH](N)C(=O)O

Test system: not listed separately
Test: Solubility of inhibitors in Locke's buffer
Assay type: physicochemical
Conditions: Locke's buffer pH 7.4; sulfonic acids: buffer added to weighed sample at 20° C.; control aldehydes: by UV absorption of filtrate

In order of rising “Solubility” value:
1. O=CC(Cc1ccccc1)NC(=O)C(NC(=O)OCc1ccccc1)C1CCCC1 (stereo not drawn) [Cbz-CyclopentylGly-Phe-H] (Cbz-[Gly(cPent)]-Phe-aldehyde; configuration not given here)  80 µg/mL (≈ 196 µM)
2. CC(C)[C@H](NC(=O)OCc1ccccc1)C(=O)N[C@H](C=O)Cc1ccccc1 [Cbz-Val-Phe-H] (Cbz-Val-Phe-aldehyde)  180 µg/mL (≈ 471 µM)
3. CC(C)C[C@H](NC(=O)N1CCc2ccccc2C1)C(=O)N[C@H](C=O)Cc1ccccc1 [THIQ-2-CO-Leu-Phe-H]  180 µg/mL (≈ 427 µM)
4. CCC(C=O)NC(=O)C(CC(C)C)NC(=O)OCc1ccccc1 (stereo not drawn) [Cbz-Leu-Abu-H] (Cbz-Leu-[Abu]-aldehyde; configuration not given here)  210 µg/mL (≈ 628 µM)

Target: T1, Recombinant human calpain I (Homo sapiens, UniProt P07384)
T1 construct: made in house
T1 sequence (P07384 1-714): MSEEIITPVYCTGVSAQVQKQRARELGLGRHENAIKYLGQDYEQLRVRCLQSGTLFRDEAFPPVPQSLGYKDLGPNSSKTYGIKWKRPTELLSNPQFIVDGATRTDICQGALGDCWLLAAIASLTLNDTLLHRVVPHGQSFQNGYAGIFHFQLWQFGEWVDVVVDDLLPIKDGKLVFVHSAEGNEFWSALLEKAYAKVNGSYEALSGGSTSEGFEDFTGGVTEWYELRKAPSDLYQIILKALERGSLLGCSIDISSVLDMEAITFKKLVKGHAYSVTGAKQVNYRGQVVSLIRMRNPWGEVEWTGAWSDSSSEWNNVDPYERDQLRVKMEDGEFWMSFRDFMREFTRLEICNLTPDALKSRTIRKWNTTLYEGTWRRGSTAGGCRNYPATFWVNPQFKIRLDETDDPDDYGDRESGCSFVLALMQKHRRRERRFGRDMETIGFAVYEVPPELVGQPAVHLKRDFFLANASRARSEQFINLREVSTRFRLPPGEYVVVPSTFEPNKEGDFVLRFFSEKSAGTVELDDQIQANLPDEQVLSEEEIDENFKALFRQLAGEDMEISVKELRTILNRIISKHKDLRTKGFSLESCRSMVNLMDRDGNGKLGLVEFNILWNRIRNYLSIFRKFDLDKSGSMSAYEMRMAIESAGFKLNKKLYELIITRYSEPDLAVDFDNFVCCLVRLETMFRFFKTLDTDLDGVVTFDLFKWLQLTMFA
T1 sequence (P04632 1-268 partner): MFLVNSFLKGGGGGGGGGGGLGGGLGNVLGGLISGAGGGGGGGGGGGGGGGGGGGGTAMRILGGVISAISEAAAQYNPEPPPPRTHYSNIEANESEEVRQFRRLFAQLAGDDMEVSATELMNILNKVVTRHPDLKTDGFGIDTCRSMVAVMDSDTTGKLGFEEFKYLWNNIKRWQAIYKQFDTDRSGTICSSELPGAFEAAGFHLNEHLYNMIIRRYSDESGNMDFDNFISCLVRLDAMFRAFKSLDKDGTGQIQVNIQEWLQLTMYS
Test: Inhibition of calpain I activity (Succ-Leu-Tyr-MNA hydrolysis)
Assay type: biochemical
Conditions: 0.2 mM Succ-Leu-Tyr-MNA, pH 7.5
Protocol: To evaluate inhibitory activity, stock solutions (40 concentrated) of each compound to be tested were prepared in 100% anhydrous DMSO and 5 μl of each inhibitor preparation were aliquoted into each of three wells of a 96-well plate. Recombinant human calpain I, prepared by the of Meyer et al. (Biochem. J. 1996, 314: 511-519), was into assay buffer (i.e., 50 mM Tris, 50 mM NaCl, 1 mM EDTA, 1 mM EGTA, and 5 mM β-mercaptoethanol, pH 7.5, including 0.2 mM Succ-Leu-Tyr-MNA), and 175 μl was aliquoted into the same wells containing the independent inhibitor stocks as well as to positive control wells which contained 5 μl DMSO, but no compound. To start the reaction, 20 μl of 50 mM CaCl2 in assay buffer was added to all wells of the plate, excepting three, which were used as background signal baseline controls. Substrate hydrolysis was monitored every 5 minutes for a total of 30 minutes. Substrate hydrolysis in the absence of inhibitor was linear for up to 15 minutes.
Inhibition of calpain I activity was calculated as the percent decrease in the rate of substrate hydrolysis in the presence of inhibitor relative to the rate in its absence. Comparison between the inhibited and control rates was made within the linear range for substrate hydrolysis. The IC50 values for inhibitors (concentration yielding 50% inhibition) were determined from the percent decrease in rates of substrate hydrolysis in the presence of five to seven different concentrations of the test compound. The results were plotted as percent inhibition versus log inhibitor concentration, and the IC50 was calculated by fitting the data to the four-parameter logistic equation shown below using the program GraphPad Prism (GraphPad Software, Inc., San Diego, Calif.).
In the equation above, the parameters a, b, c, and d are defined as follows: a is % inhibition in the absence of inhibitor, b is the slope, c is the IC50, and d is the % inhibition at an infinite concentration of inhibitor.

In order of rising IC50:
1. CC(C)[C@H](NC(=O)OCc1ccccc1)C(=O)NC(Cc1ccccc1)C(O)S(=O)(=O)O (stereo partly drawn) [Compound 1, Benzyloxycarbonyl-L-valyl-2-amino-1-hydroxy-3-phenylpropanesulfonic acid sodium Salt]  10 nM
2. O=C(N[C@H](C(=O)NC(Cc1ccccc1)C(O)S(=O)(=O)O)C1CCCC1)OCc1ccccc1 (stereo partly drawn) [Compound 3, Benzyloxycarbonyl-L-cyclopentylglycyl-2-amino-1-hydroxy-3-phenylpropanesulfonic acid sodium Salt]  15 nM
3. Tetrahydroisoquinoline-2-carbonyl-L-leucyl-2-amino-1-hydroxy-3-phenylpropanesulfonic acid sodium Salt [Compound 2]  32 nM
